Source: ChEMBL document CHEMBL1201862, “PubChem BioAssay data set” (2004)
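Results reflect a 48-hour exposure of cells in 96-well plates to compound at five concentrations. At the GI50, growth is halved.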 Activity calls are given as the source filed them. Rule as the data show it: active = GI50 up to about 1.1 µM and inactive = higher.

Tests used:
Assay in all cases: NCI anticancer screen, dose series, 48 h
TK-10 = test system: TK-10
CCRF-CEM = test system: CCRF-CEM
EKVX = test system: EKVX
OVCAR-4 = test system: OVCAR-4
LOX IMVI = test system: LOX IMVI
OVCAR-5 = test system: OVCAR-5
A549 = test system: A549
NCI-H23 = test system: NCI-H23
786-0 = test system: 786-0
SK-MEL-5 = test system: SK-MEL-5
SNB-75 = test system: SNB-75
IGROV-1 = test system: IGROV-1
HCC 2998 = test system: HCC 2998
U-251 = test system: U-251
RXF 393 = test system: RXF 393
KM12 = test system: KM12
SW-620 = test system: SW-620
UO-31 = test system: UO-31

Measured: GI50

CC(=O)Nc1ccc(-c2nnc(SCC(=O)Nc3cccc(Cl)c3)o2)cc1
inactive: TK-10 19.6 µM | CCRF-CEM 6.18 µM | EKVX 25.3 µM | OVCAR-4 17.9 µM | LOX IMVI 10.3 µM | OVCAR-5 20.7 µM | A549 18.7 µM | NCI-H23 9.79 µM | 786-0 6.49 µM | SK-MEL-5 13.9 µM | SNB-75 20 µM | IGROV-1 8.97 µM | HCC 2998 18.6 µM | U-251 9.84 µM | RXF 393 17.4 µM | KM12 16 µM | SW-620 13.5 µM | UO-31 27.7 µM

CC(NS(=O)(=O)c1ccc([N+](=O)[O-])cc1)C(=O)O (centres undefined)
inactive: TK-10 > 100 µM | CCRF-CEM > 100 µM | EKVX > 100 µM | OVCAR-4 > 100 µM | LOX IMVI > 100 µM | OVCAR-5 > 100 µM | A549 > 100 µM | NCI-H23 > 100 µM | 786-0 > 100 µM | SK-MEL-5 > 100 µM | SNB-75 80.7 µM | IGROV-1 > 100 µM | HCC 2998 > 100 µM | U-251 > 100 µM | RXF 393 > 100 µM | KM12 > 100 µM | SW-620 > 100 µM | UO-31 > 100 µM

COC(=O)CC1C(=O)OCc2c1cc1n(c2=O)Cc2c-1nc1ccccc1c2OC (centres undefined)
inactive: TK-10 > 100 µM | CCRF-CEM 6 µM | EKVX > 100 µM | OVCAR-4 > 100 µM | LOX IMVI 22.5 µM | OVCAR-5 58.9 µM | A549 59.8 µM | NCI-H23 17.3 µM | 786-0 37.3 µM | SK-MEL-5 61.1 µM | SNB-75 6.53 µM | IGROV-1 > 100 µM | HCC 2998 > 100 µM | U-251 68.9 µM | RXF 393 17.5 µM | SW-620 > 100 µM | UO-31 16.3 µM

CC(=O)NNc1nc(C)c(C(=O)NNC(=O)C(=O)Nc2c(C)cccc2C)s1
inactive: TK-10 77.1 µM | CCRF-CEM 32 µM | EKVX 37 µM | OVCAR-4 41.1 µM | LOX IMVI 18.3 µM | OVCAR-5 81.3 µM | A549 42.4 µM | NCI-H23 24.7 µM | 786-0 50.8 µM | SK-MEL-5 53 µM | SNB-75 96.4 µM | IGROV-1 46.1 µM | HCC 2998 95.9 µM | U-251 43.9 µM | RXF 393 32.2 µM | KM12 35.1 µM | SW-620 42.9 µM | UO-31 53.8 µM

O=C1[C@@H]2C3C=CC([C@H]4C(=O)N(CO)C(=O)[C@@H]34)[C@@H]2C(=O)N1CO
inactive: TK-10 > 100 µM | CCRF-CEM 25.2 µM | EKVX > 100 µM | OVCAR-4 > 75.5 µM | LOX IMVI 42.1 µM | OVCAR-5 > 100 µM | A549 > 64 µM | NCI-H23 > 92.9 µM | 786-0 41.8 µM | SK-MEL-5 59 µM | SNB-75 > 78.2 µM | IGROV-1 > 100 µM | HCC 2998 > 70 µM | U-251 > 56.2 µM | RXF 393 > 55.1 µM | KM12 > 64.7 µM | SW-620 26.1 µM | UO-31 > 65.3 µM

c1ccc2c(c1)N=C(c1cccc3ccccc13)CC(c1cccc3ccccc13)S2 (centres undefined)
inactive: TK-10 12.2 µM | CCRF-CEM 2.05 µM | EKVX 14 µM | OVCAR-4 3.68 µM | LOX IMVI 3.48 µM | OVCAR-5 6.9 µM | A549 9.12 µM | NCI-H23 3.57 µM | 786-0 3.8 µM | SK-MEL-5 8.95 µM | SNB-75 5.83 µM | IGROV-1 5.68 µM | HCC 2998 4.21 µM | U-251 2.63 µM | RXF 393 3.48 µM | KM12 2.91 µM | SW-620 2.56 µM | UO-31 11.2 µM

COc1ccc(/C=C/c2cc(OC)c(OC)c(OC)c2)cc1OC
inactive: TK-10 > 100 µM | CCRF-CEM > 100 µM | EKVX > 100 µM | OVCAR-4 > 100 µM | LOX IMVI > 100 µM | OVCAR-5 > 100 µM | A549 > 100 µM | NCI-H23 > 100 µM | 786-0 > 76.9 µM | SK-MEL-5 > 74.5 µM | SNB-75 > 44.3 µM | IGROV-1 > 100 µM | HCC 2998 > 100 µM | U-251 > 100 µM | RXF 393 > 63 µM | KM12 > 100 µM | SW-620 > 100 µM | UO-31 > 92.7 µM

CCOC1=C2N=C(C(CC)c3ccc(F)cc3)N=C2C(=O)c2ccccc21 (centres undefined)
inactive: TK-10 22 µM | CCRF-CEM 40 µM | EKVX 26.9 µM | OVCAR-4 19.7 µM | LOX IMVI 16.2 µM | OVCAR-5 26.6 µM | A549 22.1 µM | NCI-H23 25.3 µM | 786-0 29.9 µM | SK-MEL-5 13.9 µM | SNB-75 21 µM | IGROV-1 23.5 µM | HCC 2998 29.9 µM | U-251 21.7 µM | RXF 393 11.6 µM | KM12 21.9 µM | SW-620 36.4 µM | UO-31 13.2 µM

Cc1ccc(/C=C/C(=O)c2cccc3ccccc23)cc1
inactive: TK-10 15.2 µM | CCRF-CEM 15.9 µM | EKVX 17.8 µM | OVCAR-4 13.4 µM | LOX IMVI > 10 µM | OVCAR-5 14.4 µM | A549 16.7 µM | NCI-H23 > 10 µM | 786-0 15 µM | SK-MEL-5 > 10 µM | SNB-75 19.1 µM | IGROV-1 > 10 µM | HCC 2998 22.9 µM | U-251 13 µM | RXF 393 12.7 µM | KM12 13.2 µM | SW-620 13.5 µM | UO-31 25 µM

CCCCCC(=O)C(C)C1=Nc2nnc(CCCCCCCc3nnc4n3C(=O)C(C(C)C(=O)CCCCC)=N4)n2C1=O (centres undefined)
inactive: TK-10 > 100 µM | CCRF-CEM > 100 µM | EKVX > 100 µM | OVCAR-4 > 100 µM | LOX IMVI > 100 µM | OVCAR-5 > 100 µM | A549 > 100 µM | NCI-H23 > 100 µM | 786-0 > 100 µM | SK-MEL-5 > 100 µM | SNB-75 > 100 µM | IGROV-1 > 100 µM | HCC 2998 > 100 µM | U-251 > 100 µM | RXF 393 > 100 µM | KM12 > 100 µM | SW-620 > 100 µM | UO-31 > 100 µM

Cc1c2c(cc[n+]1C)O[B-](c1ccccc1)(c1ccccc1)O2
inactive: TK-10 55.2 µM | CCRF-CEM 35.9 µM | EKVX 26.5 µM | OVCAR-4 64.4 µM | LOX IMVI 51.2 µM | OVCAR-5 87.3 µM | A549 84.5 µM | NCI-H23 > 100 µM | 786-0 71.9 µM | SK-MEL-5 83.4 µM | SNB-75 22.3 µM | IGROV-1 90.6 µM | HCC 2998 27.8 µM | U-251 53.2 µM | RXF 393 52.1 µM | KM12 59.8 µM | SW-620 26.8 µM | UO-31 33.7 µM

CN(C(=O)C12C3C4C5C3C1(C(=O)C13C6C7C8C6C1C8C73)C5C42)C(C)(C)C (centres undefined)
inactive: TK-10 > 50 µM | CCRF-CEM > 24 µM | EKVX > 50 µM | OVCAR-4 > 50 µM | LOX IMVI > 21 µM | OVCAR-5 > 50 µM | A549 > 30.1 µM | NCI-H23 > 50 µM | 786-0 > 50 µM | SK-MEL-5 > 50 µM | SNB-75 > 33 µM | IGROV-1 > 50 µM | HCC 2998 > 50 µM | U-251 > 50 µM | RXF 393 > 50 µM | KM12 > 50 µM | SW-620 > 20.9 µM | UO-31 > 50 µM

Clc1ccc(C2=Nc3ccccc3SC(c3ccc(Cl)c(Cl)c3)C2)c(Cl)c1 (centres undefined)
inactive: TK-10 20.6 µM | CCRF-CEM 3.11 µM | EKVX 16.4 µM | OVCAR-4 17.1 µM | LOX IMVI 8.15 µM | OVCAR-5 17.1 µM | A549 21 µM | NCI-H23 15.3 µM | 786-0 14.5 µM | SK-MEL-5 18 µM | SNB-75 15.4 µM | IGROV-1 14.7 µM | HCC 2998 14.6 µM | U-251 17.8 µM | RXF 393 15.6 µM | KM12 7.08 µM | SW-620 6.9 µM | UO-31 14.4 µM

COC1O[C@@H]2COC(C)(C)O[C@@H]2C(=O)N1Nc1ccc([N+](=O)[O-])cc1 (some centres undefined)
inactive: TK-10 > 100 µM | CCRF-CEM > 10 µM | EKVX > 100 µM | OVCAR-4 > 100 µM | LOX IMVI 31.9 µM | OVCAR-5 > 100 µM | A549 > 100 µM | NCI-H23 > 100 µM | 786-0 34.2 µM | SK-MEL-5 > 100 µM | SNB-75 > 100 µM | IGROV-1 > 100 µM | HCC 2998 > 100 µM | U-251 > 100 µM | RXF 393 > 100 µM | KM12 > 100 µM | SW-620 25.1 µM | UO-31 > 100 µM

C[C@H]1C(=O)CC[C@]2(C)CCC(C(C)(C)O)CC12O (some centres undefined)
inactive: TK-10 > 100 µM | CCRF-CEM > 100 µM | EKVX > 100 µM | OVCAR-4 > 100 µM | LOX IMVI > 100 µM | OVCAR-5 > 100 µM | A549 > 100 µM | NCI-H23 > 100 µM | 786-0 > 100 µM | SK-MEL-5 > 100 µM | SNB-75 12.8 µM | IGROV-1 > 100 µM | HCC 2998 > 100 µM | U-251 > 100 µM | RXF 393 > 100 µM | KM12 > 100 µM | SW-620 > 100 µM | UO-31 > 100 µM
